Series [1] has as its system Pseudomonas aeruginosa E-2. Briefly: Therapeutic effects of compounds in urinary infectious diseases in vivo. Also on record: species or system JCL:S.D. female rats. As to conditions: E2, 96 h, female S.D. rats, bladder infection, oral at 6, 24 and 48 hours, urine and kidney colonies after 4 days, Probit method, read-out: 50% effective dose (ED50). The procedure: Pseudomonas aeruginosa E-2 was cultured in a nutrient medium at 37° C. for 18 hours and the culture broth thus obtained was diluted with the same medium to prepare a solution of the microorganism (cell concentration: 10^7 cells/ml). To the solution were dipped a UV-sterilized disc [glyceryl monomyristate (manufactured by Nikko Chemicals, Japan) and sodium cetylsulfurate (manufactured by Nikko Chemicals, Japan) in a weight ratio of 9:1; diameter: 2.0 mm, length: 3.0 mm] under ice-cooling for 1.5 hour to give a microorganism-containing disc for inoculation.
The above-prepared disc was surgically inserted into the bladder of JCL:S.D. female rats (one group: four rats) anaesthetized with secobarbital sodium. After the animals have been infected with the microorganism, i.e. 6 hours after the insertion of the disc, 1% oxamide-containing feed and water were administered to the animals. The oxamide-containing feed was changed to a normal feed after 24 hours. Test compounds 1, 7 and 8 as used in Test 1 (in the form of a 0.5% CMC suspension) were each orally administered to the animals in a dose of 16 mg/kg, 8.0 mg/kg, 4.0 mg/kg, 2.0 mg/kg, and 1.0 mg/kg at 6, 24 and 48 hours after the insertion of disc. After 4 days from the infection, urine was collected and further the kidney was taken out from the animals, and then the presence of microorganism was checked as to the collected urine and kidney. That is, 0.1 ml of the urine was applied onto an agar plate medium and cultured at 37° C. for 18 hours, and the number of colonies was counted. Besides, the taken out kidney was divided into two, and the plain section was contacted to an agar plate medium, and the medium was cultured likewise, and the number of colonies was counted, likewise. When the number of colonies was less than 10, it was evaluated as "effective," and when the number of colonies was more than 10, it was evaluated as "ineffective". […]

Series [2] deals with Staphylococcus aureus FDA 209P. Briefly: Antimicrobial test in vitro (MIC, agar plate dilution method). Type of series: cell-based. The note with it: S. aureus FDA 209P. Also on record: unit not given here. The procedure:
(§1) The antimicrobial activities of the following test compounds were tested by measuring the minimum inhibitory concentration (MIC) by an agar plate dilution method [cf. Chemotherapy, 22, 1126-1128 (1974)]. The test microorganisms were used in a concentration of 1×10^8 cells/ml (optical dencity (O.D.) at 660 m: 0.07-0.16) and 1×10^6 cells/ml (dilution: 100 folds).
A: Staphylococcus aureus FDA 209P

For series [3], the system named is Streptococcus pyogenes II D S-23. The series is described as above. Type of series: cell-based. Also on record: unit not given here. As to conditions: S. pyogenes II D S-23. The procedure:
as §1
B: Streptococcus pyogenes II D S-23

Series [4] concerns Escherichia coli NIHJ JC-2. The series is described as above. Type of series: cell-based. Also on record: unit not given here. As to conditions: E. coli NIHJ JC-2. The procedure:
as §1
C: Escherichia coli NIHJ JC-2

The subject of another series is Escherichia coli No. 29. Described as above. The note with it: E. coli No. 29. The class given is cell-based. Also on record: unit not given here. The procedure:
as §1
D: Escherichia coli No. 29

For series [5], the system named is Klebsiella pneumoniae NCTC 9632. Described as above. The class given is cell-based. Also on record: unit not given here. The note with it: K. pneumoniae NCTC 9632. As to the method:
as §1
E: Klebsiella pneumoniae NCTC 9632

A further series concerns Proteus mirabilis 1287. The description is as above. Type of series: cell-based. Also on record: unit not given here. As to conditions: P. mirabilis 1287. The procedure: as §1
F: Proteus mirabilis 1287

Series [6] has as its system Proteus morganii II D Kono. The series is described as above. Type of series: cell-based. Also on record: unit not given here. As to conditions: P. morganii II D Kono. As to the method:
as §1
G: Proteus morganii II D Kono

Series [7] has as its system Serratia marcescens IFO 12648. The description is as above. Type of series: cell-based. Also on record: unit not given here. As to conditions: S. marcescens IFO 12648. As to the method: as §1
H: Serratia marcescens IFO 12648

Series [8] deals with Acinetobacter calcoaceticus AC-54. The description is as above. Type of series: cell-based. Also on record: unit not given here. The note with it: A. calcoaceticus AC-54. As to the method:
as §1
I: Acinetobacter calcoaceticus AC-54

The subject of series [9] is Pseudomonas aeruginosa ATCC 10145. The series is described as above. The class given is cell-based. Also on record: unit not given here. The note with it: P. aeruginosa ATCC 10145. The procedure:
as §1
J: Pseudomonas aeruginosa ATCC 10145

Series [10] deals with Pseudomonas aeruginosa E-2. Described as above. Type of series: cell-based. Also on record: unit not given here. The note with it: P. aeruginosa E-2. As to the method: as §1
K: Pseudomonas aeruginosa E-2

Series [11] is described as follows: Measurement of concentration of compounds in urine. The note with it: male rats, oral 25 mg/kg, 0-24 hours. The class given is in vivo. The procedure: (§2) The same Test Compound 1 as used in the above Test 1 was orally administered in a dose of 25 mg/kg to three male rats (weighing 190-242 g), and blood and urine were collected from the animals at intervals. The concentration of the test compound in the collected urine and blood was measured by a thin layer plate cup (6 ml medium/.phi.90 mm shall) method wherein Bacillus subtilis ATCC 6633 was used as a test microorganism and a sensitive medium (manufactured by Eiken Kagaku K.K., Japan) was used as a medium. The results are shown in Table 2 (the concentration in urine) and in Table 3 (the concentration in blood), respectively.

The nature of series [12]: Measurement of concentration of compounds in blood. The note with it: rat, male rats, oral 25 mg/kg. The class given is in vivo. The procedure: as §2

Each structure is given as a SMILES string.

This is an account of results in patent publication US4594347A, “Pyrrolo [3,2,1-ij]-quinoline carboxylic acid compound” (Otsuka Pharmaceutical Co. Limited, priority 1983, dated 1986).

For `CC1Cc2c(N3CCN(C)CC3)c(F)cc3c(=O)c(C(=O)O)cn1c23` (stereo not drawn) [Test compound 7, 8-fluoro-2-methyl-6-oxo-9-(4-methyl-1-piperazinyl)-1,2-dihydro-pyrrolo[3,2,1-ij]quinoline-5-carboxylic acid], in series [1], the ED50 (usually the dose at which the effect has come halfway, by size or by number of responders) amounted to 6.15 mg/kg.
With `CC1Cc2c(N3CCN(C)CC3)c(F)c(N)c3c(=O)c(C(=O)O)cn1c23` (stereo not drawn) [Compound 1, 8-fluoro-2-methyl-9-(4-methyl-1-piperazinyl)-7-amino-6-oxo-1,2-dihydro-pyrrolo[3,2,1-ij]quinoline-5-carboxylic acid], the “minimum inhibitory concentration (MIC)” value is on record as 0.2 in series [2] (1×10^6 cells/ml); 0.39 in series [2] (1×10^8 cells/ml); 3.13 in [3] (1×10^6 cells/ml); 3.13 in series [3] (1×10^8 cells/ml); 0.05 in [4] (1×10^6 cells/ml); 0.1 in [4] (1×10^8 cells/ml). Further, the “minimum inhibitory concentration (MIC)” value in the series on Escherichia coli No. 29 (1×10^6 cells/ml) was 0.1; in the series on Escherichia coli No. 29 (1×10^8 cells/ml), 0.1; in series [5] (1×10^6 cells/ml) it was 0.2; in series [5] (1×10^8 cells/ml), 0.2; in the series with Proteus mirabilis 1287 (1×10^6 cells/ml), 0.39; in the series on Proteus mirabilis 1287 (1×10^8 cells/ml), 0.78. For the same compound, the “minimum inhibitory concentration (MIC)” value is given as 0.2 in series [6] (1×10^6 cells/ml); 0.39 in series [6] (1×10^8 cells/ml); 0.2 in series [7] (1×10^6 cells/ml); 0.2 in series [7] (1×10^8 cells/ml); 0.39 in series [8] (1×10^6 cells/ml); 0.39 in [8] (1×10^8 cells/ml). For the same compound, the “minimum inhibitory concentration (MIC)” value in series [9] (1×10^6 cells/ml) turned out to be 0.78; in series [9] (1×10^8 cells/ml) it was 1.56; in series [10] (1×10^6 cells/ml) it was 0.78; in [10] (1×10^8 cells/ml) it was 1.56. In addition, in series [11], the “Recovered amount in urine” value worked out at 1471.6 µg. The dose excreted at 24 h in series [11] (rat, urine, read-out: Recovery rate in urine) worked out at 27.2%. This compound had a concentration at 0.5 h in [12] (0.5 hour after the administration) of 3190 ng/mL. The concentration at 1 h in series [12] (1 hour after the administration) stood at 2490 ng/mL. In series [12] (2 hours after the administration), this compound showed a concentration at 2 h of 1920 ng/mL. The same compound showed a concentration at 4 h in series [12] (4 hours after the administration) of 900 ng/mL. Moreover, the concentration at 6 h in series [12] (6 hours after the administration) came out at 600 ng/mL. The same compound had a concentration at 8 h in series [12] (8 hours after the administration) of 310 ng/mL. Further, the median effective dose (ED50) in series [1] stood at 1.53 mg/kg.
Consider `CC1CCc2c(N3CCN(C)CC3)c(F)cc3c(=O)c(C(=O)O)cn1c23` (stereo not drawn) [Test compound 8, 8-(4-methyl-1-piperazinyl)-9-fluoro-5-methyl-6,7-dihydro-1-oxo-1H,5H-benzo[ij]quinolidine-2-carboxylic acid], for which, in [1], the median effective dose (ED50) amounted to 12 mg/kg.
